These results are taken from patent US20230256099A1, “Safe Use of Bile Acids and Their Salts as Enhancers for Nasal Delivery of Pharmaceuticals” (priority 2020, published 2023).

The structures appear in SMILES notation. Some results are limits rather than exact numbers.

Broadly, the NOAEL is the highest dose or exposure tested at which no adverse effect was seen.

The conditions of data set [1]: aqueous; cited from earlier work.
Data set [2] in a line: General toxicity study of bile salt (STC) by IN delivery: clinical pathology and organ histopathology (Example 2). Particulars: rat, in vivo, NOAEL for bile salt (STC) at an IN delivery, relative dose, rats; 0.75 mg / 0.298 kg. How it is done:
Each rat was treated with two (2) IN administrations of the respective formulations in Groups A1-A5.

For data set [3] the following is noted: aqueous epinephrine, same dose by IM route; cited from earlier work.

For the compound `C[C@H](CCC(=O)[O-])[C@H]1CC[C@H]2[C@@H]3[C@H](O)C[C@@H]4C[C@H](O)CC[C@]4(C)[C@H]3C[C@H](O)[C@]12C.[Na+]` [SC, sodium cholate], the CMC in data set [1] was around 4 mM. As to `C[C@H](CCC(=O)[O-])[C@H]1CC[C@H]2[C@@H]3CC[C@@H]4C[C@H](O)CC[C@]4(C)[C@H]3CC[C@]12C.[Na+]` [SLC, sodium lithocholate], in data set [1], the CMC was around 1 mM. `C[C@H](CCC(=O)NCCS(=O)(=O)[O-])[C@H]1CC[C@H]2[C@@H]3[C@H](O)C[C@@H]4C[C@H](O)CC[C@]4(C)[C@H]3C[C@H](O)[C@]12C.[Na+]` [STC, sodium taurocholate]: in data set [2], the NOAEL was at least 2.5 mg/kg. For the compound `CNC[C@H](O)c1ccc(O)c(O)c1` [epinephrine], the “bioavailability (BA) based on AUC of plasma concentration, IN relative to IM” value in data set [3] is reported as “approximately 5%”.
